From patent US7833805B2, “Selectively permeable membranes on porous substrates” (University of Cincinnati, priority 2004, dated 2010)

How the values were obtained:
gastric H/K ATPase [1] = target: T1, gastric H/K ATPase (Sus scrofa, UniProt P19156); test: H+ transport (acidification) by hog gastric H/K ATPase vesicles reconstituted in phospholipid-coated PC filters; assay type: biochemical
T1 construct: Hog and stimulated rabbit gastric membrane vesicles are isolated according to methods known in the art; from tissue; host or cells: hog gastric membrane vesicles
T1 sequence (P19156 whole entry): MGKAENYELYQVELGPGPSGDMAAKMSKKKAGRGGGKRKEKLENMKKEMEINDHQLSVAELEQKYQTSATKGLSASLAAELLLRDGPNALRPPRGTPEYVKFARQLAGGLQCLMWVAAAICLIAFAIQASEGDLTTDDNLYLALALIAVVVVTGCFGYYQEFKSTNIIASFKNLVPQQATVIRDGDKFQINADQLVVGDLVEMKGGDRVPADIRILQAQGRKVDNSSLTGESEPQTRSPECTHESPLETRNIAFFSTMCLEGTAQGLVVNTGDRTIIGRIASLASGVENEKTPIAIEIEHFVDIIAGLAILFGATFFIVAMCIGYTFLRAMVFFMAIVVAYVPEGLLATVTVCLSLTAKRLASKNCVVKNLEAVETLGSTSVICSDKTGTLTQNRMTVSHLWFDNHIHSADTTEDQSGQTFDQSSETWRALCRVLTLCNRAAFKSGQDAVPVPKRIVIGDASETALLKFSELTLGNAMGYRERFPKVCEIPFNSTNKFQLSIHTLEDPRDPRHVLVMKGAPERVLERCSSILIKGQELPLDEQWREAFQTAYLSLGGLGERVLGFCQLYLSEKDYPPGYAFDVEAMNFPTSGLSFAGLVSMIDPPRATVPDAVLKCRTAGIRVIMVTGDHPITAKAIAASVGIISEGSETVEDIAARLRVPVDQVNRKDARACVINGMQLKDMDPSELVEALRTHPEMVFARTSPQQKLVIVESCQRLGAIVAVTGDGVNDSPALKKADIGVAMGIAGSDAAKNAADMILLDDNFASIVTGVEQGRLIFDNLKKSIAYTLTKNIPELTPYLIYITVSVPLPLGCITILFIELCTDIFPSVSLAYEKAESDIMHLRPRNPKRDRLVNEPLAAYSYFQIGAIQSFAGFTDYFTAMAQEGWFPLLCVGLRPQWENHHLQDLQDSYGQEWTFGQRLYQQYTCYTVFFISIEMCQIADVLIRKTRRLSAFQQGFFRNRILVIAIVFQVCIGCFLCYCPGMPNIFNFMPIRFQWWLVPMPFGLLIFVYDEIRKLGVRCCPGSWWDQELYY
T1 sequence (P18434 whole entry partner): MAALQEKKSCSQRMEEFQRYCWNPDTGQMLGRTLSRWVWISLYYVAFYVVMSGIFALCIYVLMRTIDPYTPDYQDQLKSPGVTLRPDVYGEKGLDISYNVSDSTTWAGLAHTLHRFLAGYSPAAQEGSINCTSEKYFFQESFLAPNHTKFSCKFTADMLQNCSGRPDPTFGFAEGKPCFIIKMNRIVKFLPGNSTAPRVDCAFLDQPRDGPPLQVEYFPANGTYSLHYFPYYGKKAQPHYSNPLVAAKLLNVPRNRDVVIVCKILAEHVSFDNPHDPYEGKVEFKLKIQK
Protocol: (§1) Hog and stimulated rabbit gastric membrane vesicles are isolated according to methods known in the art (Saccomani et al. Biochim. Biophys. Acta 465 (1977) 311-330, Cuppoletti, et al. J. Biol. Chem. 259 (1984) 14952-1 4959). A lipid bilayer is made on 0.4 μm polycarbonate filters (area=0.11 cm^2) in Multiscreen Caco-2 filter plates. […] of 40 mg/ml 3:1 POPS:POPE in n-decane is added to the filter (inner well) and after 30 min 100 mM K-gluconate solution is added to both sides (inner & outer wells). After 2 hrs, resistance is measured with a multimeter and Ag/AgCl electrodes to ensure that a bilayer had formed. The K-gluconate solution in the inner well is removed and 5 μl of hog or stimulated rabbit gastric vesicles are added to the inner well and left for 1 hr. Resistance is then measured in 100 mM K-gluconate, KCL, NaCl and NMDGCI. To measure H^+ transport, 200 μl 10 mM KCL is added to the outer well and 100 μl of 100 mM KCL, 10 mM HEPES pH 7.4 is added to the inner well. pH of the medium in the outer well (pHo) is measured using a PHR-146 pH Electrode (LAZAR Research Labs. Los Angeles, Calif.) and an Accumet pH meter 910 (Fisher, Pittsburgh, Pa.). When the pHo is almost constant, 5 μl 100 mM MGATP solution and 1 μl 10 mg/ml valinomycin are added to the inner well and pHo was followed. […] The change in pHo over time is recorded using AXOTAPE (Union City, Calif.).

[2] = test system: gastric proton pump H/K ATPase; test: Example 1: ATP-dependent transport of acid across the bilayer with reconstituted gastric proton pump; assay type: biochemical; settings: 100 μm SCH-28080
Text: This example illustrates an embodiment of bilayer formation, membrane transport reconstitution and testing for functionality. The bilayer is formed over pores of a polycarbonate substrate comprising naturally present pores or drilled holes. Millipore micro porous polycarbonates of various pore sizes (0.4, 3, 5, and 8 μm, e.g.) are commercially available, and a multi-well porous plastic plate with 10-100 μm Lenox-laser drilled holes (1/well) is available from Procter & Gamble Co. and is used for stable bilayer formation. Techniques for bilayer preparation are known by those of ordinary skill in the art. […] The bilayer is verified according to the gramicidin-D (a cation selective antibiotic) method wherein electrical resistance is monitored to observe the effect of gramicidin in reducing the resistance of the membrane. Current flow is measured by placing one electrode in the desired well and one in the surrounding liquid outside the well. […]
The verified bilayer is incubated with vesicles comprising H/K ATPase or Kv1.5 potassium channels. 3 μl of vesicles is added to each well which was determined to have a verified bilayer. Spontaneous fusion with the bilayer is allowed to proceed for 30 minutes to one hour, at which point H/K ATPase induced acidification or potassium ion currents across the bilayer membrane are measured. […] The current is measured as described earlier, after one hour. […]

gastric H/K ATPase [3] = target: T2, gastric H/K ATPase (Oryctolagus cuniculus, UniProt P27112); test: H+ transport (acidification) by rabbit gastric H/K ATPase vesicles reconstituted in phospholipid-coated PC filters; assay type: biochemical; settings: 100 μM SCH28080, rabbit gastric vesicles, P<0.02
T2 construct: Hog and stimulated rabbit gastric membrane vesicles are isolated according to methods known in the art; from tissue; host or cells: stimulated rabbit gastric membrane vesicles
T2 sequence (P27112 whole entry): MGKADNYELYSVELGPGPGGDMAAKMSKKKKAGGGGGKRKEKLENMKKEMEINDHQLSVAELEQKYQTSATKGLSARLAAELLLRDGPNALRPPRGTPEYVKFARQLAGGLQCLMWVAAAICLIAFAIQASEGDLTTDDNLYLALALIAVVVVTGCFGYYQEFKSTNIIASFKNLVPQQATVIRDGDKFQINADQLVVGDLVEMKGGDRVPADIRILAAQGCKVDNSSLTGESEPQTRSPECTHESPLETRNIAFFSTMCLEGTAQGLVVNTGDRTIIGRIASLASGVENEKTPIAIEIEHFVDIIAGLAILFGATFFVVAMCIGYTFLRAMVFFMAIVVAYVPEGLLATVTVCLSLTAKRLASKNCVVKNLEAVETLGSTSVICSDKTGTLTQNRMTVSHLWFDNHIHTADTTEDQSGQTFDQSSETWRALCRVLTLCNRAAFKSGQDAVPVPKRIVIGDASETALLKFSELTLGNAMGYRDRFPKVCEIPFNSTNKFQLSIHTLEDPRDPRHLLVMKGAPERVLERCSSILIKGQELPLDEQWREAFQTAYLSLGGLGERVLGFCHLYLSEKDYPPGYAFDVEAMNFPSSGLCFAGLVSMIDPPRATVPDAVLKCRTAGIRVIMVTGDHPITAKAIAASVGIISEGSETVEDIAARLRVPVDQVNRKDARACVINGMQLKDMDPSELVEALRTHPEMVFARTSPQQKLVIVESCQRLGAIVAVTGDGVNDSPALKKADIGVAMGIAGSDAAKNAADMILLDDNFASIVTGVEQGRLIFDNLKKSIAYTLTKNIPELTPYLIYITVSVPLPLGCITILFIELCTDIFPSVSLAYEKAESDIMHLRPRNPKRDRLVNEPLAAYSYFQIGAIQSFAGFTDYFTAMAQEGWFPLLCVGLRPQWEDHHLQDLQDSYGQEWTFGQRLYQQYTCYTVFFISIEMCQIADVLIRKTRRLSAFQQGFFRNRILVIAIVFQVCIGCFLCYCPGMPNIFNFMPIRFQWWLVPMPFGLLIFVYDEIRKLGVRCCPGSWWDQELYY
T2 sequence (P18597 whole entry partner): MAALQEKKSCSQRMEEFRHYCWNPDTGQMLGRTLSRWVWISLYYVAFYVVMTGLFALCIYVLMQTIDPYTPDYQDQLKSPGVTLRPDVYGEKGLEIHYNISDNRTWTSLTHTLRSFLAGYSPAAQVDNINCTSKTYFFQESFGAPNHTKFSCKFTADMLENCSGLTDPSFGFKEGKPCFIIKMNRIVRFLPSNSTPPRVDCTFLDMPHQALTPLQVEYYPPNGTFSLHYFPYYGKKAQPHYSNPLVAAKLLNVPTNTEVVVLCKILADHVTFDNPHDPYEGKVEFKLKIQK
Protocol: as §1

Kv1.5 K+ channels [4] = target: T3, Kv1.5 K+ channels (Homo sapiens, UniProt P22460); test: Kv1.5 K+ channel vesicles reconstituted in phospholipid bilayers in 50 μm laser-drilled holes of a 96-well plastic plate, current measurement; assay type: biochemical
T3 construct: expressed in transfected cells; host or cells: Ltk- mouse fibroblast cells, stably transfected, dexamethasone-induced; plasma membrane vesicles
T3 sequence (P22460 whole entry): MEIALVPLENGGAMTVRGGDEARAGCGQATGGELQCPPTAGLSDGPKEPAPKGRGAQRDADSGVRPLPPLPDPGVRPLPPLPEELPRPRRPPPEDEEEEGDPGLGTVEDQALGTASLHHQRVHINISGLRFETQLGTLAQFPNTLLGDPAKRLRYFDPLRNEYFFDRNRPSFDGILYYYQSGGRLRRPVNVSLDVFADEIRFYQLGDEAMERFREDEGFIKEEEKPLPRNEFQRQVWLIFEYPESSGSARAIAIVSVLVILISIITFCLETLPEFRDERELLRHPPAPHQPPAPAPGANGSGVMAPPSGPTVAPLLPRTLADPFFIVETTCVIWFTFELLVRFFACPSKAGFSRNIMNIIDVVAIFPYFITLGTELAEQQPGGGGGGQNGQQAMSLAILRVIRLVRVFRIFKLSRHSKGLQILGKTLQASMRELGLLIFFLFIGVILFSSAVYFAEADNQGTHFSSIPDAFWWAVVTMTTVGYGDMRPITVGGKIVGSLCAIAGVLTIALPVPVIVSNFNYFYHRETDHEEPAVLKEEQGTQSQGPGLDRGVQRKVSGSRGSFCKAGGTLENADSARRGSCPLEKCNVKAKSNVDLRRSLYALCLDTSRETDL
Protocol: The verified bilayer is incubated with vesicles comprising H/K ATPase or Kv1.5 potassium channels. 3 μl of vesicles is added to each well which was determined to have a verified bilayer. Spontaneous fusion with the bilayer is allowed to proceed for 30 minutes to one hour, at which point H/K ATPase induced acidification or potassium ion currents across the bilayer membrane are measured. A desired amount of […] is added to the well (for example, add 90 μl of 100 mM KCl for […], add 92.5 μl of 100 MM KCl for 750 nM). The well tray is placed back into the holder with the 100 mM KCl and current flow is measured as before. Add a desired amount of a suitable 10 μM inhibitor to achieve a final desired concentration with the final volume of 100 μl. When the gastric proton pump H/K ATPase is reconstituted on the bilayer over the pores, ATP-dependent transport of acid across the bilayer is observed that can be inhibited by 100 μm SCH-28080 (a specific inhibitor of the H/K ATPase). The current is measured as described earlier, after one hour. […] Ion currents are not present when the vesicles lack Kv1.5 or when Kv1.5 vesicles are boiled.
To investigate reconstitution of ion channels, plasma membrane vesicles containing Kv1.5, K^+ channels are prepared from an Ltk^− cell line (mouse fibroblast cells) stably overexpressing Kv1.5 K^+ channels under the control of a dexamethasone promoter as previously described (Matsuno, et al. Biochem. Biophys. Acta 1665 (2004) 184-190). Dexamethasone-specific induction of channel expression is totally specific for Kv1.5 channels. […] A 96-well plastic plate with laser drilled pores varying from 10-100 μm (1/well) is used. Well area is 0.3 cm^2. The phospholipid bilayer is made by adding 5 μl of 40 mg/ml 3:1 POPS:POPE in n-decane to each well. After 30 min 100 mM KCl/20 mM HEPES (pH 7.4) is added to both sides of the bilayer (both inner and outer wells). After a further 30 min, the solution from the inner well is removed and plasma membrane vesicles (5 μl) containing Kv1.5 K^+ channels are added to the lipid coated wells. After 30 min, 100 mM KCl/20 mM HEPES (pH 7.4) is returned to the well and currents across the bilayer are measured with an HS-2A headstage and Gene Clamp 500 amplifier (Axon Instruments, Foster City, Calif.) and filtered at 50 Hz. Voltages ranging from −80 to +70 mV are applied in 10-mV increments for 200 msec and electrical currents are recorded using pCLAMP version 5.5. When indicated, compound B, an inhibitor of Kv1.5 K^+ channels (see U.S. Pat. No. 6,174,908) is added.

Kv1.5 K+ channels [5] = target: T3, Kv1.5 K+ channels; test: Kv1.5 K+ channel vesicles reconstituted in phospholipid-coated leached PLLA membranes, resistance measurement; assay type: biochemical; settings: 1 μM compound B, KCl, n=8; PL alone 7.39, PL+Kv1.5 vesicles 0.55 MΩ
Protocol: (§2) Bilayer formation is studied using PC, PETE and PLLA membranes (area=0.3 cm^2). Phospholipid bilayers are made by adding […] of 3:1 POPS:POPE (40 mg/ml) in n-decane to the membranes and waiting for 30 min. 100 mM KCL/10 mM HEPES (pH 7.4), is then added to both sides of the membrane (150 μl inside insert or well; 200 outside solution) and left for 30 minutes. A multimeter and Ag/AgCl reference electrodes are used to measure the resistance across the phospholipid-coated membranes. When gramicidin D is used, it is mixed with the lipids to a final concentration of 1 μg/ml. 10 μl of the lipid/gramicidin mixture is added to the membranes. After 30 minutes medium is added to both sides of the lipid-coated membrane (both inner and outer wells) and left for another 30 minutes. Resistances of the lipid-coated membranes are measured with two different media bathing the lipid bilayer on both sides: 100 mM KCl/10 mM HEPES (pH 7.4) and 100 mMNMDGCI/10 mM HEPES (pH 7.4). Reconstitution of gramicidin D is also done using the 96-well plastic plate with laser drilled holes and current is measured as described below.
Reconstitution of Kv1.5 K^+ channels is also carried out using lipid coated PLLA membranes (area=0.3 cm2) and resistance is measured as described in the previous section. Effects of compound B are also tested.

[6] = Assay of lipid bilayer formation: resistance across phospholipid-coated porous membranes with gramicidin D
Protocol: as §2

[7] = Ion flux across the inventive membrane with gramicidin D as ionophore
[8] = Gramicidin D reconstituted in the phospholipid bilayer in 50 μm holes of the 96-well plastic plate, current measurement; settings: KCl medium, +70 mV
Protocol: as §2, with “below. […]” for “below.”

For `Cc1nc2c(OCc3ccccc3)cccn2c1CC#N` [SCH28080], the “effect on H+ flux (rate of acidification)” value (gastric H/K ATPase [1]; 100 μM SCH28080, hog gastric vesicles, P<0.05) was “significantly reduces”, the “effect on acidification of outer well medium (representative experiment)” value (gastric H/K ATPase [1]; 100 μM SCH28080, hog vesicles, 5 mM MgATP, 100 μg/ml valinomycin) was “blocks acidification” and the “effect on ATP-dependent transport of acid across the bilayer” value [2] was “inhibited”. For the same compound, the “effect on H+ flux (rate of acidification)” value (gastric H/K ATPase [3]) was “significantly reduces”.
In the case of `COc1ccc(CCN2C(=O)CSC2c2ccc(C)c(C)c2)cc1` (centres unmarked) [compound B, 2-(3,4-dimethyphenyl)-3-[2-(4-methoxyphenyl)ethyl]-thiazolidin4-one], the “effect on Kv1.5 K+ channel currents (I-V curve)” value (Kv1.5 K+ channels [4]; 200 nM and 500 nM compound B) is reported as “inhibited”, the “effect on Kv1.5 K+ current after addition of Kv1.5 vesicles” value (Kv1.5 K+ channels [4]; 1 μM compound B, P<0.001) is reported as “inhibited” and the “effect on potassium ion currents of membrane fused with Kv1.5 vesicles (Example 1)” value (Kv1.5 K+ channels [4]; concentration not given) is reported as “inhibited”. The IC50 (Kv1.5 K+ channels [4]; sigmoidal dose-response plot, n=6, 100 mM KCl/20 mM HEPES pH 7.4, read-out: IC50, Kv1.5-mediated K+ currents expressed as ΔI at 70 mV as % maximum) was 170 ± 40 nM and the “resistance of PLLA membrane + phospholipids + Kv1.5 vesicles after inhibitor” value (Kv1.5 K+ channels [5]) was 4.13±0.52 MΩ.
For gramicidin D, the “resistance with gramicidin D, PETE membranes” value ([6]; KCl, n=5, PL alone 39.25 MΩ) was 5.41±1.11 MΩ, the “change of resistance with gramicidin D, PETE membranes” value ([6]; NMDGCl) was “did not change” and the “resistance after gramicidin D, PC filters with 3, 5 and 8 μm pores” value ([6]; presence of K+ (100 mM KCl), P<0.005) was “virtually zero”. The “resistance on addition of gramicidin D, leached PLLA membranes” value ([6]; presence of K+, n=6, PL alone 11.38 MΩ) was 0.23±0.15 MΩ, the “change of resistance on addition of gramicidin D, leached PLLA membranes” value ([6]; presence of NMDG+) was “unaffected” and the “reduction of resistance by gramicidin D, PC filters with 3, 5 and 8 μm pores” value ([6]; presence of NMDG+ (impermeant cation)) was “not”. For the same compound, the “flux across the inventive membrane” value [7] was 10^8 ions per second, per gramicidin D molecule and the “current with gramicidin D” value [8] was “about 30 μVA”.
